Measured values from PMC8314276, “A Commercial Extract of Cyanotis arachnoidea Roots as a Source of Unusual Ecdysteroid Derivatives with Insect Hormone Receptor Binding Activity” (Journal of Natural Products, 2021).
Several values for one entry are separate records, joined by “and”; a condition that tells them apart may be missing. Equal values may be shown once. Read-outs that look alike come from different tables or passages of the source.

Legend:
[1] = biological target: T1, insect ecdysteroid receptor (EcR) (Spodoptera frugiperda, UniProt Q8MWR2); assay: EcR binding assay ([3H]PonA displacement in Sf-9 cells); conditions: for IC50: inhibition of [3H]PonA binding; for inhibition at 25 µM: read-out: inh% at 25 μM; for EcR binding activity in words: [3H]PonA binding; for EcR binding potency/affinity relative to 20E: fold higher than 20E
T1 construct: To an Sf-9 cell suspension (400 μL; (2.0–3.0) × 10^6 cells/mL) in a disposable culture tube; endogenous in cells; host or cells: Sf-9 cells
T1 sequence (Q8MWR2 1-403): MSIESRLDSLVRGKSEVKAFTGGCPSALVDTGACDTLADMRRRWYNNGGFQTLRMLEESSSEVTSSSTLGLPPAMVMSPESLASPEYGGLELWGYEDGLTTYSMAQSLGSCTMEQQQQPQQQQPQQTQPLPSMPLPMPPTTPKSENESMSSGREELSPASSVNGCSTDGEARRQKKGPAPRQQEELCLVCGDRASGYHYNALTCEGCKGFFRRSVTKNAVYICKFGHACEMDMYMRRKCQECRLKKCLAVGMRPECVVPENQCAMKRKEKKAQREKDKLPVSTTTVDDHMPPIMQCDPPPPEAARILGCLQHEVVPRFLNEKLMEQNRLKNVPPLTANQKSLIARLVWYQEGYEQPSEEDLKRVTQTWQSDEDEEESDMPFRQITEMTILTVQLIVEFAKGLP
Protocol: Tritiated PonA ([^3H]PonA; 3.5 TBq/mmol) was custom synthesized by American Radiolabeled Chemicals, Inc. (St. Louis, MO, USA). A stock solution of [^3H]PonA (30 000 dpm/μL, ∼0.1 μM) was prepared in 70% aqueous EtOH. Cold PonA and 20E were obtained from Enzo Biochem Inc. (New York, NY, USA) and Sigma-Aldrich Co. (St. Louis, MO, USA), respectively. Tebufenozide was obtained from stock samples. All test compounds were dissolved in DMSO. An Sf-9 cell line was cultured in EX-CELL 420 medium (SAFC Biosciences, Inc., Lenexa, KS, USA) supplemented with 10% fetal bovine serum.
The binding assay was performed as described previously with some modifications.[43],[44] To an Sf-9 cell suspension (400 μL; (2.0–3.0) × 10^6 cells/mL) in a disposable culture tube (12 mm × 75 mm) was added a test compound solution (1 μL), followed by a [^3H]PonA solution (2 μL, 60 000 dpm). After incubation at 25 °C for 30 min, the cell suspension was diluted with water (3 mL) and filtered through a glass fiber filter GF/B (25 mm; Whatman plc, Maidstone, UK). The filter was washed with water (2 × 3 mL), dried, and transferred to a glass vial. To the vial were added 3 mL of Insta-Gel Plus (PerkinElmer Inc., Waltham, MA, USA), and the radioactivity was measured with an LSC-8000 counter (Aloka, Tokyo, Japan). DMSO and PonA (final concentration: 2.7 μM) were used to determine the total and nonspecific binding, respectively. The test compounds were first screened at 25 μM, and the compounds with an inhibition rate of ≥50% were subjected to concentration–response experiments. The 50% inhibition concentration for [^3H]PonA binding [IC50 (M)] was determined using probit analysis,[45] and the logarithm of its reciprocal, pIC50, was used as the index of the binding affinity.

EcR = biological target: T2, EcR (Spodoptera frugiperda, UniProt Q8MWR2); assay: Reporter gene assay (hsp27 ecdysone response element/firefly luciferase) in Sf-9 cells; assay type: cell-based, insect; conditions: for agonistic activity in reporter gene assay at 0.1 μM / agonistic activity in reporter gene assay at 1 μM: Sf-9 cells, luciferase reporter; for agonist/antagonist classification: binding assay combined with reporter gene assay
T2 sequence (Q8MWR2 1-403): T1 sequence (Q8MWR2 1-403)
Protocol: The reporter gene assay was performed in Sf-9 cells according to a previously reported method.[46] Briefly, a reporter plasmid was constructed from pBmbA/hsp27/firefly luciferase (hsp27/Fluc), in which seven repeats of hsp27 ecdysone response element were inserted. This plasmid was a kind gift from Dr. Luc Swevers (Institute of Biosciences & Applications, National Center for Scientific Research “Demokritos”, Athens, Greece). The plasmid was amplified in Escherichia coli and purified using a QIAGEN plasmid midi kit (QIAGEN GmbH, Hilden, Germany). A cell suspension (approximately 2.0 × 10^6 cells/mL; 400 μL) was added to each well of a 24-well plate, and it was incubated for 1 h. Then, 200 μL of a mixture of plasmids and TransFast transfection reagent (Promega; Madison, WI, USA) was added to each well. After incubating for 24 h, 6 μL of a solution of test compound (1% v/v) was added and incubated. After 48 h, the medium in each well was removed with a pipet. Cells were lysed by adding 100 μL/well of Passive Lysis Buffer and incubating for 15 min at 25 °C. The lysate (20 μL) was transferred to a 96-well microplate for the luciferase assay. Chemical luminescence was measured using a 96-microplate GLOMAX luminometer (Promega), according to the manufacturer’s instructions.

[2] = pIC50 (M), ecdysteroid receptor binding affinity, Sf-9 cell suspension, 25 °C, 30 min, probit analysis

| Structure (SMILES) | IC50 [1, 2] | inhibition at 25 µM [1] | agonistic activity in reporter gene assay at 0.1 μM (EcR) | EcR binding activity in words ([1]; Sf-9 cells) | further results |
| --- | --- | --- | --- | --- | --- |
| CC(C)(O)CC[C@@H](O)[C@](C)(O)[C@H]1CC[C@@]2(O)C3=CC(=O)[C@@H]4C[C@@H](O)[C@@H](O)C[C@]4(C)[C@H]3CC[C@]12C [20E, 20-hydroxyecdysone, reference compound] | – | – | – | – | IC50 ([1]; Sf-9 cell suspension, 25 °C, 30 min, probit analysis, read-out: pIC50 (M), ecdysteroid receptor binding affinity (converted)): 1.66e-07 M |
| CC(C)(O)CC[C@@H](O)[C@](C)(O)[C@H]1CC[C@@H]2C3=C(CC[C@@]21C)[C@@]1(C)C[C@H](O)[C@H](O)CC1=C(O)C3=O [Compound 4, 14β-14,15-Dihydrocalonysterone] | ~2.51e-05 M | 49.8% | – | – | – |
| CC(C)CC[C@@H](O)[C@](C)(O)[C@H]1CC[C@H]2C3=CC(=O)[C@@H]4C[C@@H](O)[C@@H](O)C[C@]4(C)C3=CC[C@]12C [Compound 5, 14-Deoxydacryhainansterone] | – | – | agonists | strong | IC50 ([1]; IC50, EcR binding, Sf-9 cells): 4.17e-08 M and 4.2e-08 M; EcR binding potency/affinity relative to 20E [1]: approximately 4 times |
| CC(C)CCC(=O)[C@](C)(O)[C@H]1CC[C@@]2(O)C3=CC(=O)[C@@H]4C[C@@H](O)[C@@H](O)C[C@]4(C)C3=CC[C@]12C [Compound 6, 22-Oxodacryhainansterone] | – | – | did not show agonistic activity | moderate | agonistic activity in reporter gene assay at 1 μM (EcR): agonists; IC50 ([1]; IC50, EcR binding, Sf-9 cells): 3.8e-07 M |
| CC(C)(O)CC[C@@H](O)[C@](C)(O)[C@H]1CC[C@H]2C3=CC(=O)[C@@H]4C[C@@H](O)[C@@H](O)C[C@]4(C)C3=CC[C@]12C [Compound 7, 14-Deoxy-25-hydroxydacryhainansterone] | 4.79e-07 M | – | did not show agonistic activity | moderate | agonistic activity in reporter gene assay at 1 μM (EcR): agonists |
| CC(C)(O)CC[C@@H](O)[C@](C)(O)[C@H]1CC[C@H]2C3=CC(=O)[C@@H]4C[C@@H](O)[C@@H](O)C[C@]4(C)[C@H]3CC[C@]12C [Compound 8, 14-Deoxy-20-hydroxyecdysone] | 6.92e-08 M | – | agonists | – | EcR binding potency/affinity relative to 20E [1]: 2.4 times |
| CC(C)(O)CC[C@@H](O)[C@](C)(O)[C@H]1CC[C@H]2C3=CC(=O)[C@H]4C[C@@H](O)[C@@H](O)C[C@]4(C)[C@H]3CC[C@]12C [Compound 9, 5α-14-Deoxy-20-hydroxyecdysone] | > 2.51e-05 M | 0.93% | – | very weak activity | – |
| CC(C)(O)CC[C@@H](O)[C@](C)(O)[C@H]1CC[C@@H]2C3=CC(=O)[C@@H]4C[C@@H](O)[C@@H](O)C[C@]4(C)[C@H]3CC[C@@]21C [Compound 10, 14β-14-Deoxy-20-hydroxyecdysone] | > 2.51e-05 M | 18.2% | – | – | – |
| CC(C)(O)CC[C@@H](O)[C@](C)(O)[C@H]1CC=C2C3=C(CC[C@@]21C)[C@@]1(C)C[C@H](O)[C@H](O)CC1=C(O)C3=O [Compound 11, calonysterone] | > 2.51e-05 M | 0% | – | – | – |
| CC(C)CC[C@@H](O)[C@](C)(O)[C@H]1CC[C@@]2(O)C3=CC(=O)[C@@H]4C[C@@H](O)[C@@H](O)C[C@]4(C)C3=CC[C@]12C [Compound 12, dacryhainansterone] | 2.29e-08 M | – | agonists | strong | – |
| CC1(C)CC[C@H]([C@](C)(O)[C@H]2CC[C@@]3(O)C4=CC(=O)[C@@H]5C[C@@H](O)[C@@H](O)C[C@]5(C)[C@H]4CC[C@]23C)O1 [Compound 13, shidasterone] | 2.51e-06 M | – | – | – | agonistic activity in reporter gene assay at 1 μM (EcR): did not activate the reporter gene; agonist/antagonist classification (EcR): ecdysteroid antagonists |
| CC(C)CC[C@@H](O)[C@](C)(O)[C@H]1CC[C@@]2(O)C3=CC(=O)[C@@H]4C[C@@H](O)[C@@H](O)C[C@]4(C)[C@H]3[C@H](O)C[C@]12C [Compound 14, ajugasterone C] | 6.46e-07 M | – | agonists | – | – |
| CC(C)(O)CC[C@@H](O)[C@](C)(O)[C@H]1CC[C@@]2(O)C3=CC(=O)[C@H]4C[C@@H](O)C[C@@H](O)[C@]4(C)[C@H]3CC[C@]12C [Compound 15, 5α-2-deoxyintegristerone A] | > 2.51e-05 M | 2.42% | – | very weak activity | – |
| C/C(=N\O)[C@H]1CC[C@@]2(O)C3=CC(=O)[C@@H]4C[C@@H](O)[C@@H](O)C[C@]4(C)[C@H]3CC[C@]12C [Compound 16, poststerone 20(E)-oxime] | > 2.51e-05 M | 4.3% | – | – | – |
| CC(C)(O)CC[C@@H](O)[C@](C)(O)[C@H]1CC[C@@]2(O)C3=C/C(=N/O)[C@@H]4C[C@@H](O)[C@@H](O)C[C@]4(C)[C@H]3CC[C@]12C [Compound 17, 20-hydroxyecdysone 6(Z)-oxime] | > 2.51e-05 M | 4.53% | – | – | – |
| CC(C)(O)CC[C@@H](O)[C@](C)(O)[C@H]1CC[C@@]2(O)C3=C/C(=N\O)[C@@H]4C[C@@H](O)[C@@H](O)C[C@]4(C)[C@H]3CC[C@]12C [Compound 18, 20-hydroxyecdysone 6(E)-oxime] | ~2.51e-05 M | 60.1% | – | – | – |
| CCC1(CC)O[C@H]2C[C@@]3(C)[C@@H](C[C@H]2O1)C(=O)C=C1[C@@H]3CC[C@]2(C)[C@@H]([C@@](C)(O)[C@H](O)CCC(C)(C)O)CC[C@@]12O [Compound 19, 28,28-diethyl-2,3-methylidene-20-hydroxyecdysone] | 3.02e-06 M | – | – | – | agonistic activity in reporter gene assay at 1 μM (EcR): did not activate the reporter gene; agonist/antagonist classification (EcR): ecdysteroid antagonists |
| CC(C)(O)CC[C@@H](O)[C@](C)(O)[C@H]1CC[C@@]2(O)C3=CC(=O)[C@@H]4C[C@@H](O)[C@@H](O)C[C@]4(C)[C@@]3(O)CC[C@]12C [Compound 20, 9α,20-dihydroxyecdysone] | > 2.51e-05 M | 45.7% | – | – | – |
| CC(C)(O)CC[C@@H](O)[C@](C)(O)[C@H]1CC[C@@]2(O)C3=CC(=O)[C@H]4C[C@@H](O)[C@@H](O)C[C@]4(C)[C@@]3(O)CC[C@]12C [Compound 21, 5α-9α,20-dihydroxyecdysone] | > 2.51e-05 M | 27.1% | – | very weak activity | – |
| CC(C)CC[C@@H](O)[C@](C)(O)[C@H]1CC[C@@]2(O)C3=CC(=O)[C@@H]4C[C@@H](O)[C@@H](O)C[C@]4(C)[C@H]3CC[C@]12C [PonA, ponasterone A, reference compound] | 8.91e-09 M | – | – | – | – |
